# Experimental data as given in patent US20050143427A1, “[B]-fused bicyclic proline derivatives and their use for treating arthritic conditions” (priority 2003, published 2005).
# Assays:
# [1] = biological target: pig alpha-2-delta receptor 1 (A2DR1) (Sus scrofa, UniProt A0A287BIN3); test: [3H]Gabapentin scintillant proximity A2DR1 binding assay (A2DR1 SPA, Biological Method 5); conditions: displacement of [3H]-gabapentin
# Method: (§1) Recombinant HEK 293 cells expressing pig A2DR1 and A2DR2 subunits were grown under normal cell culture conditions (RPMI-1640 media with 10% FBS, 200 μg G418, and 1% penicillin/streptomycin 1t 37° C. with 5% CO2) until reaching confluency in T-75 flasks, at which time they were harvested. The harvested cells were suspended in ice-cold 5 mM Tris/5 mM ethylenediaminetetraacetic acid (“EDTA”) buffer, pH 7.4 (“TE buffer”) containing phenylmethylsulfonyl fluoride (“PMSF”) (0.1 mM) and Roche Complete Protease Inhibitor Cocktail, and allowed to sit on ice for 30 minutes. The cells were broken by sonication using 20 bursts, 40-50 cycles, and then centrifuged at 3000×g for 10 minutes. The resulting supernatant was transferred to a new tube and centrifuged at 50,000×g for 30 minutes. The resulting pellet was resuspended in 10 mM HEPES buffer, pH 7.4, homogenized, and stored at—80° C. The A2DR1 or A2DR2 membrane protein concentration was determined by the Pierce BCA method using bovine serum albumin (“BSA”) as the standard.
# (§2) The [^3H]gabapentin SPA binding assay was performed in Costar 3632 96-well, clear bottom assay plates using Wheatgerm agglutinin beads (Amersham Pharmacia Biotech). Pig A2DR1 or A2DR2 membranes (10-20 μg protein per well) prepared above in Step (1) and SPA beads (0.5 mg per well) were mixed with 30 nM [^3H]gabapentin (52 Ci/mmol; Amersham Pharmacia Biotech) in 10 mM HEPES/10 mM MgSO4 assay buffer, pH 7.4 using KOH. The final well volume was 200 μL and non-specific binding was determined in the presence of 10 μM unlabeled pregabalin. The final mixture containing A2DR1 or A2DR2 membrane protein incubated with SPA beads, test compounds, and [^3H]gabapentin was incubated at room temperature for 15-24 hours, and the plates were then counted on a Wallace Trilux 1450 Microbeta scintillation counter. Step (3): Determination of IC50 values
# (§3) Curve fitting and IC50 values were calculated using a four-parameter, non-linear regression equation from GraphPad Prism 3.0 software, while Ki values were determined using the equation of Chang and Prussoff.
# [2] = tested on: MIA Rat (monosodium iodoacetate-induced osteoarthritis, right knee joint); test: Monosodium iodoacetate-induced osteoarthritis in rat model of joint cartilage damage (MIA Rat); type: in vivo; conditions: 10 mg/kg/day via osmotic pump, 2-week MIA study, Day 14, rat
# Excerpt: One end result of the induction of osteoarthritis in this model, as determined by histologic analysis, is the development of an osteoarthritic condition within the affected joint, as characterized by the loss of Toluidine blue staining and formation of osteophytes. Associated with the histologic changes is a concentration-dependent degradation of joint cartilage, as evidenced by affects on hind-paw weight distribution of the limb containing the affected joint, the presence of increased amounts of proteoglycan or hydroxyproline in the joint upon biochemical analysis, or histopathological analysis of the osteoarthritic lesions.
# The invention compounds typically are not effective for relieving joint pain when administered in an acute model, such as the instant MIA Rat model, which has a duration of just 14 or 28 days.
# Generally, In the MIA Rat model on Day 0, the hind-paw weight differential between the right arthritic joint and the left healthy joint of male Wistar rats (150 g) are determined with an incapacitance tester, model 2KG (Linton Instrumentation, Norfolk, United Kingdom). The incapacitance tester has a chamber on top with an outwardly sloping front wall that supports a rat's front limbs, and two weight sensing pads, one for each hind paw, that facilitates this determination. Then the rats are anesthetized with isofluorine, and the right, hind leg knee joint is injected with 1.0 mg of mono-iodoacetate (“MIA”) through the infrapatellar ligament. Injection of MIA into the joint results in the inhibition of glycolysis and eventual death of surrounding chondrocytes. The rats are further administered either an invention compound or vehicle (in the instant case, water) daily for 14 days or 28 days.
# The invention compound is typically administered at a dose of 30 mg of per kilogram of rat per day (30 mg/kg/day), but may be administered at other doses such as, for example, 10 mg/kg/day, 60 mg/kg/day, 90-mg/kg/day, or 100 mg/kg/day according to the requirements of the invention compound being studied. It is well within the level of ordinary skill in the pharmaceutical arts to determine a proper dosage of an invention compound in this model.
# Administration of an invention compound in this model is optionally by oral administration or by intravenous administration via an osmotic pump. After 7 and 14 days for a two week study, or 7, 14, and 28 days for a four week study, the hind-paw weight distribution is again determined. Typically, the animals administered vehicle alone place greater weight on their unaffected left hind paw than on their right hind paw, while animals administered an invention compound show a more normal (i.e., more like a healthy animal) weight distribution between their hind paws. This change in weight distribution was proportional to the degree of joint cartilage damage. Percent inhibition of a change in hind paw joint function is calculated as the percent change in hind-paw weight distribution for treated animals versus control animals. For example, for a two week study, [formula] wherein: ΔWC is the hind-paw weight differential between the healthy left limb and the arthritic limb of the control animal administered vehicle alone, as measured on Day 14; and • ΔWG is the hind-paw weight differential between the healthy left limb and the arthritic limb of the animal administered an invention compound as measured on Day 14.
# In order to measure biochemical or histopathological end points in the MIA Rat model, some of the animals in the above study may be sacrificed, and the amounts of free proteoglycan in both the osteoarthritic right knee joint and the contralateral left knee joint may be determined by biochemical analysis. The amount of free proteoglycan in the contralateral left knee joint provides a baseline value for the amount of free proteoglycan in a healthy joint. […]
# [3] = biological target: T1, alpha-2-delta receptor 2 (A2DR2) (Homo sapiens, UniProt Q9NY47); test: [3H]Gabapentin A2DR2 binding assay (filter, Biological Method 4); conditions: displacement of [3H]-gabapentin
# T1 construct: expressed in transfected cells; host or cells: HEK 293 (membrane preparation)
# Excerpt: (§4) HEK 293 recombinant cells expressing A2DR1 or A2DR2 protein are harvested and washed in phosphate buffered saline (“PBS”). The cells are centrifuged and resuspended in tris(hydroxymethyl)aminomethane-ethylenediaminetetraacetic acid (“Tris-EDTA” or “TE”) buffer containing Roche Complete Protease Inhibitor Cocktail. The cells are homogenized, centrifuged at 3000×g, and the supernatant centrifuged again at 50,000×g. The resulting pellet is resuspended and homogenized in TE. Following determination of A2DR1 or A2DR2 protein concentration, aliquots are stored at −70° C. until the day of testing (membrane preparation may be used for at least 6 months).
# (§5) In one version, the binding assay is set up in a 96-well format using deep-well polypropylene plates. In a total volume of 500 μL, the following additions are made: 250 μL buffer [[…] N-2-hydroxyethylpiperazine-N′-2-ethanesulfonic acid (“HEPES”), pH 7.4], 25 μL [3H]gabapentin (10 nM final concentration), 200 μL thawed tissue membrane preparation from Step (1) (˜40 μg protein), and 25 μL of test compound at 7 test dilutions (for example, 0.001, 0.01, 0.03, 0.1, 0.3, 1.0, and 10 μM concentrations). Non-specific binding for each plate is determined by the addition of 10 μM of pregabalin instead of test compound in a few of the 96 wells. Following incubation for 45 minutes at 21° C., the contents of the wells are filtered under vacuum onto glass filter/B (“GF/B”) filter mats and then washed 4×1 mL with chilled 50 mM tris(hydroxymethyl)aminomethane (“Tris”) HCl, pH 6.9. The mats are placed into plastic pouches, scintillation cocktail is added, the pouches are sealed, and radioactivity for each sample is counted.
# (§6) Specific binding values for each concentration are transformed and then analyzed by a 4-parameter nonlinear regression equation provided by Prism graphics software by Graph Pad to determine IC50 values by conventional means.
# [4] = biological target: pig alpha-2-delta receptor 2 (A2DR2) (UniProt A0A8W4FF87); test: [3H]Gabapentin scintillant proximity A2DR2 binding assay (A2DR2 SPA, Biological Method 5); conditions: displacement of [3H]-gabapentin
# Method: as §1, §2, §3
# [5] = biological target: alpha-2-delta receptor 1 (A2DR1) (Homo sapiens, UniProt P54289); test: [3H]Gabapentin A2DR1 binding assay (filter, Biological Method 4); conditions: displacement of [3H]-gabapentin
# Excerpt: as §4, §5, §6
# pig alpha-2-delta receptor 1 (A2DR1), sequence (A0A287BIN3 1-1109): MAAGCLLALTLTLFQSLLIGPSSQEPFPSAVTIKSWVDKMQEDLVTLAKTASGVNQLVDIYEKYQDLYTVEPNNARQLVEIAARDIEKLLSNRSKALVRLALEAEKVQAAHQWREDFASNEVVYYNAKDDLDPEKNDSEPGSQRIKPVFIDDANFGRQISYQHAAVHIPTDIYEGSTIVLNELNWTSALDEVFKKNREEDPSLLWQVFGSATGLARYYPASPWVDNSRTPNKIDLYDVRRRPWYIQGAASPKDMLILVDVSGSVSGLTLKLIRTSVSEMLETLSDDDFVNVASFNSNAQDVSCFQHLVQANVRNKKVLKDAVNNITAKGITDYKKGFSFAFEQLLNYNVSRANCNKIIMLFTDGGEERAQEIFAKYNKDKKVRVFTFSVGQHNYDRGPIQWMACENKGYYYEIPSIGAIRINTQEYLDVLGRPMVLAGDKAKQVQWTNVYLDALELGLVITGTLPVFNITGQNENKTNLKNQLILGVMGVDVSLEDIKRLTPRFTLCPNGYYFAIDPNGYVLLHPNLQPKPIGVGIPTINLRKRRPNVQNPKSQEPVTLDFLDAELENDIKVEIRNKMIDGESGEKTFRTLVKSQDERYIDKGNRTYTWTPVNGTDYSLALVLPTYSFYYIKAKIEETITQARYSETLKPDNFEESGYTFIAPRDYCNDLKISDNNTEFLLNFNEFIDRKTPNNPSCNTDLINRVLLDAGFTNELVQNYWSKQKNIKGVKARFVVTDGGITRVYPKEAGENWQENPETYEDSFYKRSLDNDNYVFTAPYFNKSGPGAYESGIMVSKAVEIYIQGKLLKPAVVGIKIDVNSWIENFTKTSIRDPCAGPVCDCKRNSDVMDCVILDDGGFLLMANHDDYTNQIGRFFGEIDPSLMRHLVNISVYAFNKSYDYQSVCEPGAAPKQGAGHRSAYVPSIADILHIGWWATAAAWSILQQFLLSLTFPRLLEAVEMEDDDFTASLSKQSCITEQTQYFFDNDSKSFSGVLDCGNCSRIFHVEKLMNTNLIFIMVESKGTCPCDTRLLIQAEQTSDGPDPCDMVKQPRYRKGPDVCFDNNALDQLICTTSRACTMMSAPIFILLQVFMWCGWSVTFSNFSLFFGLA
# T1 sequence (Q9NY47 19-1150): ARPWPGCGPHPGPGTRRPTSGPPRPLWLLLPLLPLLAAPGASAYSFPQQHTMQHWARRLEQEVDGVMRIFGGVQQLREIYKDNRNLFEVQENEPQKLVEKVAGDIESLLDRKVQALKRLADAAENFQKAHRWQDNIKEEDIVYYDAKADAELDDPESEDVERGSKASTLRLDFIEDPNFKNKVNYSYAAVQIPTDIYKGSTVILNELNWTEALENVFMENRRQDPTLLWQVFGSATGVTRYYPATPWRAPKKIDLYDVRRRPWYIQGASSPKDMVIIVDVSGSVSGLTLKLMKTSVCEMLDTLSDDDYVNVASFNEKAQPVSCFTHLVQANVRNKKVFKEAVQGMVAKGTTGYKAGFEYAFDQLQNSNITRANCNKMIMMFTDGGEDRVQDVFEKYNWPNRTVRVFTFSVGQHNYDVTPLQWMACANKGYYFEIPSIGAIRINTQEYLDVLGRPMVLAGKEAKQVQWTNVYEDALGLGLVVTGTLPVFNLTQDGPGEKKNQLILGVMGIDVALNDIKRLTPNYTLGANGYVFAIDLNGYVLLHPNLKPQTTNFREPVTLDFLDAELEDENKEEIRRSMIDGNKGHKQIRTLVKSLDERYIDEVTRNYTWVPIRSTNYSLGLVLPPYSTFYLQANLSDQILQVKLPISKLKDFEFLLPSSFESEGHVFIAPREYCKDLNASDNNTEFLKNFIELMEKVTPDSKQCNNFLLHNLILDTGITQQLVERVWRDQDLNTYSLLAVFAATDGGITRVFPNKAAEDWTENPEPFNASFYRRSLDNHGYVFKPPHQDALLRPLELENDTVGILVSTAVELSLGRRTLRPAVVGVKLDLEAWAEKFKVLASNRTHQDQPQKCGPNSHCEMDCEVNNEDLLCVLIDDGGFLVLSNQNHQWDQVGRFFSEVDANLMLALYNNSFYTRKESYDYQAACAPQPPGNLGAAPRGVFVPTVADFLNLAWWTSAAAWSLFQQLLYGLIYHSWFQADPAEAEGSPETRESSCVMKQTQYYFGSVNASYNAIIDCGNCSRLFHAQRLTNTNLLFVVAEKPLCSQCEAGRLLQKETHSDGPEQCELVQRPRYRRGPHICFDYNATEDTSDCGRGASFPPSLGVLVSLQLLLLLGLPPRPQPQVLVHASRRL
# alpha-2-delta receptor 1 (A2DR1), sequence (P54289 25-1103): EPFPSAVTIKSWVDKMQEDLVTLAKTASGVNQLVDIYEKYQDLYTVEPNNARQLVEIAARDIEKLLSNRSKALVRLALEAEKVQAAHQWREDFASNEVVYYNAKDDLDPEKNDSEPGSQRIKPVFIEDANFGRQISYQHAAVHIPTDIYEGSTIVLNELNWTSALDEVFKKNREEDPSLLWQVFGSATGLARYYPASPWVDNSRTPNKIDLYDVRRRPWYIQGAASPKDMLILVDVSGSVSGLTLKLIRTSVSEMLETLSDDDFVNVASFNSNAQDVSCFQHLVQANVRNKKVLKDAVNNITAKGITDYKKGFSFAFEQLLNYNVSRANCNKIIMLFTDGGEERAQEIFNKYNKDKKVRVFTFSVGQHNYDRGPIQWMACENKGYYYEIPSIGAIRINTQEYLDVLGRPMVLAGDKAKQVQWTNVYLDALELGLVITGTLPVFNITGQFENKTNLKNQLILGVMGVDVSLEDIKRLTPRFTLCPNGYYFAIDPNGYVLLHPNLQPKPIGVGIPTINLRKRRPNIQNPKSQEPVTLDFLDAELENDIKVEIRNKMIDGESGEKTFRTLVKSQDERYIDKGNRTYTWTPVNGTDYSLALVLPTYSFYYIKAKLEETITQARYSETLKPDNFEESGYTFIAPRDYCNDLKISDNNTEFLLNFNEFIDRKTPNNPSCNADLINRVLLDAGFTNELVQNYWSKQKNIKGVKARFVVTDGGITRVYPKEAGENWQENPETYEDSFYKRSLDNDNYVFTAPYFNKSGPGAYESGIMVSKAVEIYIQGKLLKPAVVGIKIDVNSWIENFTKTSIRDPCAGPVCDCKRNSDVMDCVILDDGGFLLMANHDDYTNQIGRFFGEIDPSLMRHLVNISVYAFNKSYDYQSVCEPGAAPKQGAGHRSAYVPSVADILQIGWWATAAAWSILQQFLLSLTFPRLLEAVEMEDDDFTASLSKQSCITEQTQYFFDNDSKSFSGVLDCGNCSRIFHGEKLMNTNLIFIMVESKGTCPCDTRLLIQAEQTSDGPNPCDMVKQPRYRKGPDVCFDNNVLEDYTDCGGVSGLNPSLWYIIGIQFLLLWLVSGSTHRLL
Structure (SMILES),melting point,IC50 [1] [µM],% I @ 10 mg/kg/day (%) (± SEM): inhibition of loss of hind limb joint function in MIA at Day 14 [2],IC50 [3] [µM],IC50 [4] [µM],IC50 [5] [µM]
C1CC[C@@H]2N[C@H](c3nnn[nH]3)C[C@@H]2C1,240 °C (dec.),,,,,
CCC1CC[C@@H]2C[C@@H](C(=O)O)N[C@@H]2C1.Cl (stereo partly drawn),188 to 190 °C,,,,,
O=C(O)[C@@H]1C[C@H]2CCC(c3ccccc3)C[C@H]2N1 (stereo partly drawn),200 to 205 °C,,,,,
CN(C)CCOC(=O)[C@@H]1C[C@@H]2CCCC[C@@H]2N1.Cl,189 to 195 °C,,,,,
CN1C(C(=O)O)C[C@@H]2CCCC[C@@H]21 (mixture of isomers) [Example A4],,≥ 10,67 ± 8,≥ 10,≥ 10,
CC1(C(=O)O)C[C@@H]2CCCC[C@@H]2N1 (mixture of isomers) [Example B2],,≥ 10,58 ± 12,≥ 10,≥ 10,2.83
O=C(NS(=O)(=O)C(F)(F)F)[C@@H]1C[C@@H]2CCCC[C@@H]2N1 [Example E3],247 to 249 °C,,,≥ 10,,≥ 10
CN1[C@H](C(=O)NS(=O)(=O)C(F)(F)F)C[C@@H]2CCCC[C@@H]21 [Example E4],189 to 192 °C,,,≥ 10,,≥ 10
CC1CCC2NC(C(=O)O)CC2C1 (stereo not drawn) [Example O5],,2.8,−32 ± 20,0.29,≥ 10,0.11
O=C(NC1CCC2NC(C(=O)O)CC2C1)C1CCCCC1 (stereo not drawn) [Example O6],,,−48 ± 10,≥ 10,,≥ 10
NC1CCC2NC(C(=O)O)CC2C1 (stereo not drawn) [Example O7],,,−63 ± 14,≥ 10,,≥ 10
